Assay results from patent US8735363B2, “Preparation and application of heparin silver” (priority 2005, dated 2014).

Assays:
[1] = tested on: hyperplastic scar wound surface; assay: Animal model of hyperplastic scar (excised whole-thickness skin wound); type: in vivo, New-Zealand rabbit
Experimental: The scar tissue was subjected to Masson staining and observed under light microscope, and the thickness of dermis (Da) of wound surface after epithelization and the thickness of dermis (Db) of adjacent normal tissue were measured.

[2] = tested on: deep second degree scald wound surface; assay: Animal model of burn (deep second degree steam scald); type: in vivo, Rats
Experimental: After rats were wounded, samples were taken at intervals of time. The wet weight of wound surface tissue (Ga) and the tissue dry weight (Gb) after baking at 80° C. for 72 hours were measured by weighting method. The water content of wound surface was calculated as W=(Ga−Gb)/Ga×100%, wherein W represented the degree of edema.

heparin silver
Scar index, 60 days ([1]; 60 days, scar index = (Da−Db)/Db, dermis thickness, Masson staining): 2.06 ± 0.83 (n = 6) | Scar index, 180 days ([1]; 180 days, scar index = (Da−Db)/Db, dermis thickness, Masson staining): 1.85 ± 0.52 (n = 6) | Healing time of wound surface (days) ([1]; rabbit 2 cm×5 cm excision wound, dressing with powder changed once per week, healed = scab less than 5% of wound area): 21.4 ± 2.16 (n = 6) days | Water content of wound surface (W) ([2]; 8 h after wounding, W=(Ga−Gb)/Ga×100%, degree of edema): 80.25 ± 2.78 (n = 6) % | Water content of wound surface (W) ([2]; 24 h after wounding): 70.82 ± 3.56 (n = 6) % | Hydroxyproline content of wound surface ([2]; 1 d after wounding, chloramine T oxidization method): 18.55 ± 2.13 (n = 5) ug/mL | Hydroxyproline content of wound surface ([2]; 2 d after wounding): 20.45 ± 2.12 (n = 5) ug/mL | Water content of wound surface (W) ([2]; 48 h after wounding): 70.16 ± 2.64 (n = 6) % | Hydroxyproline content of wound surface ([2]; 3 d after wounding): 22.04 ± 1.35 (n = 5) ug/mL | Water content of wound surface (W) ([2]; 72 h after wounding): 68.44 ± 1.32 (n = 5) % | Hydroxyproline content of wound surface ([2]; 5 d after wounding): 23.27 ± 2.11 (n = 6) ug/mL | Water content of wound surface (W) ([2]; 5 d after wounding): 67.61 ± 2.85 (n = 5) % | Hydroxyproline content of wound surface ([2]; 7 d after wounding): 23.96 ± 2.54 (n = 6) ug/mL | Water content of wound surface (W) ([2]; 7 d after wounding): 67.52 ± 1.36 (n = 5) % | Hydroxyproline content of wound surface ([2]; 10 d after wounding): 26.87 ± 2.36 (n = 6) ug/mL | Hydroxyproline content of wound surface ([2]; 14 d after wounding): 26.91 ± 2.14 (n = 6) ug/mL | Hydroxyproline content of wound surface ([2]; 21 d after wounding): 24.05 ± 1.74 (n = 7) ug/mL | Healing Time (d) ([2]; rat 20% area deep second degree scald, powder dressing 0.5-1 mm changed once per day): 21.5 ± 2.2 (n = 8) d | effect in the treatment of burns and/or scalds (animal test) ([2]; summary statement): accelerating healing speed, reducing occurrence of infection and inflammation, and improving healing quality of wound surface
